Source: patent publication EP3428647A1, “EXPRESSION SIGNATURE FOR GLIOMA DIAGNOSIS AND/OR PROGNOSIS IN A SUBJECT” (Consejo Superior de Investigaciones Científicas (CSIC), priority 2017, dated 2019)
Like-named read-outs stand apart in the source and are kept apart here.

What was measured:
U251MG tumorspheres = assay: Cytotoxic assay, tumorsphere specific assay; type: cell-based; conditions: Homo sapiens
Experimental: (§1) A total of 5x10^3 cells/mL/well were seeded in Ultra-low Attachment Plates containing MammoCultTM Basal Medium (Human) (Stem Cell Tech) supplied with 0.48 mg/mL hydrocortisone, 0.2% heparin solution and 10% MammoCult™ Proliferation Supplement (Human). After 4 days, primary tumorspheres were measured, both in size and in number, using an inverted microscope (Olympus CKX41).
(§2) For the assay, 5x10^3 cells were seeded and then treated with the different compound at 11 different concentrations at 1/3 dilutions after 24 hours. Then, 96 hours later, cell viability was measured via MTT assay and validated independently by crystal violet staining. IC50 was calculated as the concentration allowing 50% survival compared to day 0 controls. Combination experiments were performed testing 11 different concentrations at 1/3 dilutions of FK866 and maintaining same suboptimal concentration of TMZ (as indicated) in all tested points.

SF268 tumorspheres = assay: Cytotoxic assay, tumorsphere specific assay; type: cell-based, human; conditions: for IC50: Homo sapiens
Experimental: as §1, §2

U251MG = assay: Cytotoxic assay MTT, monolayer culture; type: cell-based; conditions: Homo sapiens
Experimental: (§3) The human Glioblastoma cell line SF268 and U251MG were cultured in RPMI 1640 medium (SIGMA) supplemented with 10% Fetal Bovine Serum (FBS) at 37°C under 5% CO2 atmosphere. For DNA transfection, SF268 and U251MG were transfected with Mirus TransIT-X2 Dynamic Delivery System (Mirus MIR6000) in exponential phase with 2.5 µg of a small hairping RNA (shRNA) against NAMPT (QIAGEN SureSilencing shRNA insert sequence: 5'-[…]-3' (SEQ ID NO: 17)), 2.5 µg of DNA carrying an hygromycin empty vector (QIAGEN noncoding sequence: 5'-[…]-3' (SEQ ID NO: 18)) and 2.5 µg of DNA of pCMV-hygromycin carrying a cDNA of NAMPT gene (SinoBiological HG10990-M).
as §2

SF268 = assay: Cytotoxic assay MTT, monolayer culture; type: cell-based, human; conditions: for IC50: Homo sapiens, monolayer
Experimental: as §3
5x10^3 SF268 cells were seeded then treated with FK866 24 hours later. After 96 hours, cell viability was measured with MTT.
as §2

[1] = test system: NAMPT- underexpressing cells; assay: Clonal heterogeneity analysis (clone phenotypes), rescue; type: cell-based, human; conditions: 1 mM NMN; both cell lines
Experimental: (§4) 10^3 cells were seeded in 10 cm plates, every condition in triplicate. The medium was replaced every 3 days and after 12 days the colonies were fixed and stained with a Crystal violet assay. After extensive-washing, colonies were counted. Values are expressed in number of observed colonies among 10^3 seeded cells. To analyze the clonal heterogeneity, 10^2 random colonies were classified in triplicate depending on its phenotype: Holoclone, Meroclone and Paraclone (Li H. et al 2008.; Garcia-Heredia JM, Lucena-Cacace A, Verdugo-Sivianes EM, Perez M, Carnero A. The cargo protein MAP17 (PDZK1IP1) regulates the cancer stem cell pool activating the Notch pathway by abducting NUMB. Clin Cancer Res. 2017 Feb 2. doi: 10.1158/1078-0432.CCR-16-2358. [
(§5) NAMPT catalyzes the conversion of nicotinamide to nicotinamide mononucleotide (NMN), which is the rate-limiting step in the NAD salvage pathway. If the enzymatic activity of NAMPT is directly responsible for these phenotypes, the phenotype should be recovered by directly adding the product of the enzyme to cells. Therefore, we repeated the previous surrogate experiments and added saturating concentrations of NMN to cells expressing low levels of NAMPT (sh supplemented with NMN, sh+NMN). In these experiments, we rescued the parental phenotypes by supplying the cells with the NAMPT metabolic product NMN (Figure 6A-D left). […]

[2] = test system: SF268 NAMPT-underexpressing cells; assay: Proliferation assay (growth curve), rescue of NAMPT-underexpressing cells; type: cell-based, human; conditions: 1 mM NMN; compared to sh
Experimental: A time course curve of parental (empty vector transfected cells) and NAMPT both cDNA and shRNA-expressing cells was generated by seeding […] in 2.2 cm bottom-well diameter dishes in triplicate samples. After 24 hours, medium was changed (day 0) and the indicated culture media added. Every 24 hours, cells were fixed and stained with crystal violet 1% (SIGMA C6158-50G). After extensive washing, crystal violet was solubilized in 20% acetic acid (Sigma) and quantified at 595 nm absorbance as a relative measure of cell number (BIORAD iMarkTM Microplate Reader). Values are expressed as the percentage of cell growth of cells growing in the presence of 10% FBS. Zero percent refers to the number of cells at day 0.
as §5

[3] = test system: SF268 NAMPT-underexpressing cells; assay: Sphere-forming assay, rescue; type: cell-based, human; conditions: 1 mM NMN; compared to sh
Experimental: as §1
(§6) NAMPT catalyzes the conversion of nicotinamide to nicotinamide mononucleotide (NMN), which is the rate-limiting step in the NAD salvage pathway. If the enzymatic activity of NAMPT is directly responsible for these phenotypes, the phenotype should be recovered by directly adding the product of the enzyme to cells. Therefore, we repeated the previous surrogate experiments and added saturating concentrations of NMN to cells expressing low levels of NAMPT (sh supplemented with NMN, sh+NMN). In these experiments, we rescued the parental phenotypes by supplying the cells with the NAMPT metabolic product NMN (Figure 6A-D left). […] Similar results were found using a second shRNA against NAMPT (Figure 4A, B).
Similar results were found using a second shRNA against NAMPT (Figure 4A, B).

[4] = test system: SF268 NAMPT-underexpressing cells; assay: Colony formation (clonogenicity) assay, rescue; type: cell-based, human; conditions: 1 mM NMN; compared to sh
Experimental: as §4, §5

[5] = test system: SF268 and U251MG NAMPT-underexpressing cells; assay: FACS analysis of CD133 and CD44, rescue; type: cell-based, human; conditions: 1 mM NMN; both cell lines
Experimental: Single cells were individually seeded through cell sorting (BD FACS Jazz) in 96 well Ultra-low attachment plates containing MammoCultTM Basal medium (Human) (Stem Cell Tech) supplied with hydrocortisone 0.48 mg/mL, Heparin solution 0.2% and 10% MammoCult™ Proliferation Supplement (Human). After 21 days, primary tumorspheres formed were measured both in size and number using inverted microscope (Olympus CKX41). Fluorescence-activated cell sorting (FAC). For FACS staining, live cells were incubated with CD133 (AC133-PE, Miltenyi) and CD44 (PE, Miltenyi) for 30 minutes at dilutions specified in the manufacturer's protocols.
as §6, with “B). […]” for “B).”

[6] = U-251, U251MG NAMPT (overexpressing), combined with constant 150 µM TMZ, read-out: IC50 FK866 + 150 µM TMZ (nM ± SD)
[7] = U-251, U251MG sh (NAMPT shRNA), combined with constant 150 µM TMZ, read-out: IC50 FK866 + 150 µM TMZ (nM ± SD)
[8] = U-251, U251MG v (vector only), combined with constant 150 µM TMZ, read-out: IC50 FK866 + 150 µM TMZ (nM ± SD)
[9] = SF-268, SF268 NAMPT (overexpressing), combined with constant 100 µM TMZ, read-out: IC50 FK866 + 100 µM TMZ (nM ± SD)
[10] = SF-268, SF268 sh (NAMPT shRNA), combined with constant 100 µM TMZ, read-out: IC50 FK866 + 100 µM TMZ (nM ± SD)
[11] = SF-268, SF268 v (vector only), combined with constant 100 µM TMZ, read-out: IC50 FK866 + 100 µM TMZ (nM ± SD)

O=C(/C=C/c1cccnc1)NCCCCC1CCN(C(=O)c2ccccc2)CC1 [FK866]
IC50 (U251MG tumorspheres; [6]): 7.2 ± 0.7 nM | IC50 (U251MG tumorspheres; U-251, U251MG NAMPT (overexpressing), monotherapy, read-out: IC50 FK866 (nM ± SD)): 11.3 ± 1.3 nM | IC50 (U251MG tumorspheres; [7]): 25.4 ± 1.8 nM | IC50 (U251MG tumorspheres; U-251, U251MG sh (NAMPT shRNA), monotherapy, read-out: IC50 FK866 (nM ± SD)): 27.3 ± 1.4 nM | IC50 (U251MG tumorspheres; [8]): 17.1 ± 0.9 nM | IC50 (U251MG tumorspheres; U-251, U251MG v (vector only), monotherapy, read-out: IC50 FK866 (nM ± SD)): 18.6 ± 1.9 nM | induced toxicity in tumorspheres (CIC population) (SF268 tumorspheres): effective | IC50 (SF268 tumorspheres; [9]): 0.5 ± 1.1 nM | IC50 (SF268 tumorspheres; SF-268, SF268 NAMPT (overexpressing), monotherapy, read-out: IC50 FK866 (nM ± SD)): 2.5 ± 0.4 nM | IC50 (SF268 tumorspheres; [10]): 7.3 ± 0.7 nM | IC50 (SF268 tumorspheres; SF-268, SF268 sh (NAMPT shRNA), monotherapy, read-out: IC50 FK866 (nM ± SD)): 9.5 ± 0.9 nM | IC50 (SF268 tumorspheres; [11]): 4.2 ± 0.3 nM | IC50 (SF268 tumorspheres; SF-268, SF268 v (vector only), monotherapy, read-out: IC50 FK866 (nM ± SD)): 6.1 ± 1.2 nM | IC50 (U251MG; U-251, 96 h, U251MG NAMPT (overexpressing), monotherapy, 96 hours, read-out: IC50 FK866 (nM ± SD)): 15.3 ± 1.2 nM | IC50 (U251MG; U-251, 96 h, U251MG sh (NAMPT shRNA), monotherapy, 96 hours, read-out: IC50 FK866 (nM ± SD)): 22.3 ± 0.6 nM | IC50 (U251MG; U-251, 96 h, U251MG v (vector only), monotherapy, 96 hours, read-out: IC50 FK866 (nM ± SD)): 20.7 ± 0.7 nM | IC50 (U251MG; [6]): 5.1 ± 1.4 nM | IC50 (U251MG; [7]): 19.4 ± 0.7 nM | IC50 (U251MG; [8]): 14.3 ± 1.3 nM | IC50 (SF268; SF-268, 96 h, SF268 NAMPT (overexpressing), monotherapy, 96 hours, read-out: IC50 FK866 (nM ± SD)): 2.8 ± 0.3 nM | IC50 (SF268; SF-268, 96 h, SF268 sh (NAMPT shRNA), monotherapy, 96 hours, read-out: IC50 FK866 (nM ± SD)): 8.3 ± 0.8 nM | IC50 (SF268; SF-268, 96 h, SF268 v (vector only), monotherapy, 96 hours, read-out: IC50 FK866 (nM ± SD)): 5.2 ± 0.9 nM | IC50 (SF268; [9]): 0.2 ± 0.4 nM | IC50 (SF268; [10]): 6.1 ± 0.2 nM | IC50 (SF268; [11]): 2.4 ± 0.4 nM | effect of combined treatment with TMZ on the values (SF268; both in mass cultures and tumorspheres): slightly sensitized | sensitivity of NAMPT-overexpressing cells in mass cultures (SF268; compared with parental cells and NAMPT underexpressing cells): more sensitive

NC(=O)c1ccc[n+](C2OC(COP(=O)([O-])O)C(O)C2O)c1 (stereo not drawn) [NMN, nicotinamide mononucleotide]
number of holoclones [1]: can rescue the number of holoclones in the vector | growth curve, vector-proliferation ratio [2]: can rescue the vector-proliferation ratio | tumorsphere area / number of tumorspheres [3]: can rescue the number of tumorspheres generated in the vector | clonogenicity [4]: can rescue the clonogenetic ability of the vector | levels of CD44 expression [5]: can rescue the levels of CD44 expression in the vector | levels of CD133 expression [5]: can rescue and surpass the levels of CD133 expression in the vector

Cn1nnc2c(C(N)=O)ncn2c1=O [TMZ, Temozolomide]
IC50 (U251MG tumorspheres; U-251, U251MG NAMPT (overexpressing), monotherapy, read-out: IC50 TMZ (µM ± SD)): 222000 ± 4700 nM | IC50 (U251MG tumorspheres; U-251, U251MG sh (NAMPT shRNA), monotherapy, read-out: IC50 TMZ (µM ± SD)): 221000 ± 3200 nM | IC50 (U251MG tumorspheres; U-251, U251MG v (vector only), monotherapy, read-out: IC50 TMZ (µM ± SD)): 224500 ± 1700 nM | IC50 (SF268 tumorspheres; SF-268, SF268 NAMPT (overexpressing), monotherapy, read-out: IC50 TMZ (µM ± SD)): 173000 ± 3200 nM | IC50 (SF268 tumorspheres; SF-268, SF268 sh (NAMPT shRNA), monotherapy, read-out: IC50 TMZ (µM ± SD)): 174000 ± 3600 nM | IC50 (SF268 tumorspheres; SF-268, SF268 v (vector only), monotherapy, read-out: IC50 TMZ (µM ± SD)): 170000 ± 2100 nM | IC50 (U251MG; U-251, 96 h, U251MG NAMPT (overexpressing), monotherapy, 96 hours, read-out: IC50 TMZ (µM ± SD)): 201000 ± 5300 nM | IC50 (U251MG; U-251, 96 h, U251MG sh (NAMPT shRNA), monotherapy, 96 hours, read-out: IC50 TMZ (µM ± SD)): 204000 ± 4800 nM | IC50 (U251MG; U-251, 96 h, U251MG v (vector only), monotherapy, 96 hours, read-out: IC50 TMZ (µM ± SD)): 194000 ± 3400 nM | IC50 (SF268; SF-268, 96 h, SF268 NAMPT (overexpressing), monotherapy, 96 hours, read-out: IC50 TMZ (µM ± SD)): 174000 ± 2100 nM | IC50 (SF268; SF-268, 96 h, SF268 sh (NAMPT shRNA), monotherapy, 96 hours, read-out: IC50 TMZ (µM ± SD)): 163000 ± 2200 nM | IC50 (SF268; SF-268, 96 h, SF268 v (vector only), monotherapy, 96 hours, read-out: IC50 TMZ (µM ± SD)): 165000 ± 1900 nM
